Values of other authors in patent US20240318128A1, “BIOFUNGICIDE PRODUCTION BY CONIOCHAETA AND APPLICATION IN CONTROL OF EARLY BLIGHT OF POTATO” (The United States of America, as represented by the …, priority 2023, published 2024).

Test system: yeast and bacteria
Conditions: Segeth et al. 2003

## coniocetin
  spectrum of inhibition: inhibits
